According to publication PMC7000209, “Novel small molecule modulators of quorum sensing in avian pathogenic Escherichia coli (APEC)” (Virulence, 2018):

Assays:
[1] = tested on: AI-2 activity of O8; assay: AI-2 bioluminescence indicator assay, APEC O8; format: cell-based, avian pathogenic E. coli (APEC) O8; details: Escherichia coli, read-out: % Inhibtion of AI-2 activity, serotype O8, bioluminescence vs DMSO treated control
Method: (§1) Overnight culture of APEC O78 prepared in LB broth was adjusted to an optical density (OD600) of 0.05 (7 × 10^7 CFU/mL) in fresh LB broth. One hundred micro-liters of the culture was transferred to a 96-well plate and 1µL (100 μM final concentration) of the compound was added to each well using a pin tool. Chloramphenicol (40 μg/mL) or kanamycin (30 μg/mL) and 1μL of 100% DMSO were included as controls in each plate. Plates were incubated at 37 °C for 10 h with shaking in a Sunrise^TM Tecan plate reader (Tecan Group Ltd. San Jose, CA, USA) and the growth was kinetically monitored every 30 min by measuring the OD at 600 nm.
(§2) The AI-2 bioluminescence assay was performed as described previously. Briefly, APEC O78 cultures grown in the presence of SMs (see above) were centrifuged at 5000 × g for 10 min, and cell-free culture supernatants were prepared by using a 0.22 µm filter 96 well plate (Millipore). The bioluminescence reporter V. harveyi BB170 (AI-1^+ and AI-2^-) was grown overnight in AB medium at 30 °C aerobically with shaking. The overnight culture was diluted to 1:5000 in fresh AB medium and incubated at 30 °C for 3 h. Following incubation, 180 μL of the V. harveyi BB170 culture was distributed into each well of a 96-well plate and mixed with 20 µL of the cell free culture supernatant, the plate was then incubated at 30 °C for 2.5 h in the dark and the bioluminescence was measured using in vivo imaging system (IVIS Lumina Series III, PerkinElmer, USA). […] Cell-free culture supernatants collected from overnight cultures of V. harveyi BB120 (AI-1^+andAI-2^+) and E. coli DH5α (a strain lacks AI-2) were used as controls. Bioluminescence of SMs treated culture supernatants were compared to DMSO treated control. The Z-score was calculated to evaluate the quality of the bioluminescence screening. Four independent experiments were conducted for the 69 compounds that inhibited ≥ 75% of the AI-2 mediated bioluminescence and the average inhibition percentage was calculated.
(§3) The selected compounds were also tested for inhibition of AI-2 production in other APEC serotypes such as O1, O2, O8, O15, O18, O35, O109, and O115 that are commonly implicated in colibacillosis using the same procedure described above.

[2] = tested on: AI-2 activity of O18; assay: AI-2 bioluminescence indicator assay, APEC O18; format: cell-based, avian pathogenic E. coli (APEC) O18; details: Escherichia coli, read-out: % Inhibtion of AI-2 activity, serotype O18, bioluminescence vs DMSO treated control
Method: as §1, §2, §3

[3] = tested on: AI-2 activity of O35; assay: AI-2 bioluminescence indicator assay, APEC O35; format: cell-based, avian pathogenic E. coli (APEC) O35; details: Escherichia coli, read-out: % Inhibtion of AI-2 activity, serotype O35, bioluminescence vs DMSO treated control
Method: as §1, §2, §3

[4] = tested on: AI-2 activity of O115; assay: AI-2 bioluminescence indicator assay, APEC O115; format: cell-based, avian pathogenic E. coli (APEC) O115; details: Escherichia coli, read-out: % Inhibtion of AI-2 activity, serotype O115, bioluminescence vs DMSO treated control
Method: as §1, §2, §3

[5] = tested on: QS-regulated and virulence factors genes of APEC O78; assay: qRT-PCR of QS-regulated and virulence factor genes; format: cell-based, avian pathogenic E. coli (APEC) O78; details: APEC O78, 100 µM, 10 h, ∆∆Ct vs DMSO
Method: The effect of the selected AI-2 inhibitors on the expression of QS-regulated and virulence factors genes of APEC was determined using qRT-PCR. APEC O78 was grown in the presence of 100 µM of each compound in a 96-well plate at 37 °C for 10 h. APEC O78 culture treated with 1µL of 100% DMSO was used as control. Total RNA was extracted from duplicate wells for each compound (200 µL) using a miRNeasy Mini Kit (Qiagen). RNA quality and quantity was determined by nanodrop 2000 C spectrophotometer (Thermo scientific). Traces of DNA were removed using Genomic DNA removal mix (Qiagen). Approximately, 5 μg of purified RNA was used to synthesize cDNA using the Qiagen RT^2 First Strand Kit (Qiagen). The qRT-PCR was performed using SensiMix^TM SYBR® Hi-ROX qPCR Master Mix (Bioline) according to manufacturer instructions in a realplex^2 mastercycler (Eppendorf) with 55 °C annealing temperature. Gene-specific primers were designed using PrimerQuest Tool and obtained from integrated DNA technologies (IDT). The data were normalized to the house-keeping gene, glyceraldehyde-3-phosphate dehydrogenase (GAPDH). The relative fold change was calculated using the ∆∆Ct method. Three independent experiments were conducted.

[6] = tested on: G. mellonella larvae infected with APEC O78; assay: Wax moth (G. mellonella) larva infection model; format: in vivo, Galleria mellonella; details: for increase in larval survival: 12.5 µg/larva (50 mg/kg), APEC O78 4.25 × 10^4 CFU, 72 h, vs DMSO treated controls; for clearance of APEC in surviving larvae / reduction of bacterial load in surviving larvae: live larvae at 72 h; for reduction of bacterial load in surviving larvae: in comparison to dead larvae
Method: G. mellonella caterpillars (larvae) in the final instar stage (fifth instar) were obtained from Vanderhorst, Inc. (St. Mary’s, Ohio, USA), stored in wood shavings in a petri dish in the dark and used within 7 days of receiving. Larvae with 15–25 mm length, 250–350 mg weight, having a creamy color with minimal speckling and no grey markings were used in this study. The infection was performed as described previously. For the inoculation, AI-2 inhibitors were diluted in a buffer mix (30% DMSO plus 10 mM MgSO4) as described previously and each larva (n = 10) was inoculated with 8.5 µL (50 mg/kg; 12.5 µg/larva) of the AI-2 inhibitors into the hemocoel via the last left proleg using PB600-1 repeating dispenser (Hamilton) attached to insulin syringe (31 gauge, 8 mm needle length; ReliOn). Larvae were placed inside sterile petri dishes and incubated for 2 h in the dark at 37 °C. Then, larvae were infected with 8.5 µL of (4.25 × 10^4 CFU) of Rif^R APEC O78 in 10 mM MgSO4 on the right hind proleg. Rif^R APEC O78 was generated as described above by plating APEC on LB agar plate containing 50 µg/ mL rifampicin for specific monitoring of APEC population inside the larvae. […] Infection dose of Rif^R APEC O78 to larvae was identified based on preliminary study (Figure S1). Larvae were incubated at 37°C in the dark and the survival was monitored daily for 72 h. Infected larvae treated with buffer mix and 75 mg/kg of chloramphenicol were used as controls.
For the quantification of APEC inside the larvae, dead and live larvae were surface sterilized with 70% ethanol, homogenized in PBS. The suspension was tenfold serially diluted and plated on MacConkey agar plates supplemented with 50 µg/mL of rifampicin. The plates were then incubated overnight at 37 °C and APEC load was enumerated. Two independent experiments were conducted using larvae (n = 10) obtained in different batches.

Structure (SMILES): NC(=O)c1ccccc1Nc1cccc(C(F)(F)F)c1 [C3, 2-{[3-(trifluoromethyl)phenyl]amino}benzamide]
- inhibition at 100 µM [1]: 39%
- inhibition at 100 µM [2]: 8%
- inhibition at 100 µM [3]: 37%
- inhibition at 100 µM [4]: 35%
- expression of fpr [5]: down-regulated

Structure (SMILES): Cc1ccccc1N1CCN(C2CCCN(C(=O)c3ccc(F)c(Cl)c3)C2)CC1 (centres unmarked) [C2, 1-[1-(3-chloro-4-fluorobenzoyl)-3-piperidinyl]-4-(2-methylphenyl)piperazine]
- inhibition at 100 µM [1]: 20%
- inhibition at 100 µM [2]: 43%
- inhibition at 100 µM [3]: 55%
- inhibition at 100 µM [4]: 52%
- increase in larval survival [6]: 30%
- larval death at 48 h post treatment (in words) [6]: no larval death
- clearance of APEC in surviving larvae [6]: 100%
- reduction of bacterial load in surviving larvae [6]: up to 5 logs
- expression of hha [5]: down-regulated
- expression of ugpC [5]: down-regulated

Structure (SMILES): O=C(CCN1CCN(c2ccccc2F)CC1)Nc1ccc(Br)cc1 [C7, N-(4-bromophenyl)-3-[4-(2-fluorophenyl)-1-piperazinyl]propanamide]
- inhibition at 100 µM [1]: 2%
- inhibition at 100 µM [2]: 48%
- inhibition at 100 µM [3]: 62%
- inhibition at 100 µM [4]: 45%
- larval death at 72 h post treatment (in words) [6]: no larval death
- expression of nlpC [5]: up-regulated

Structure (SMILES): OCCC1CN(C2CCN(c3ccccc3)CC2)CCN1CCCc1ccccc1 (centres unmarked) [C10, 2-[4-(1-phenyl-4-piperidinyl)-1-(3-phenylpropyl)-2-piperazinyl]ethanol]
- inhibition at 100 µM [1]: 0%
- inhibition at 100 µM [2]: 35%
- inhibition at 100 µM [3]: 47%
- inhibition at 100 µM [4]: ≥ 75%
- expression of fliP [5]: down-regulated
- expression of frwC [5]: down-regulated
- expression of iss [5]: down-regulated

Structure (SMILES): O=[N+]([O-])c1cccc(S(=O)(=O)Nc2ccc(Br)cc2)c1 [C6, N-(4-bromophenyl)-3-nit robenzenesulfonamide]
- inhibition at 100 µM [1]: ≥ 75%
- inhibition at 100 µM [2]: ≥ 75%
- larval death at 48 h post treatment (in words) [6]: no larval death
- expression of cheW [5]: down-regulated
- expression of csrA [5]: down-regulated
- expression of fliP [5]: down-regulated
- expression of fpr [5]: down-regulated
- expression of hha [5]: down-regulated
- expression of murD [5]: down-regulated

Structure (SMILES): CS/C(N)=N/N=C/c1cc(C)ccc1O [C4, methyl N'-(2-hydroxy-5-methylbenzylidene)h ydrazonothiocarbamate]
- inhibition at 100 µM [1]: 0%
- inhibition at 100 µM [2]: 54%
- inhibition at 100 µM [3]: 60%
- inhibition at 100 µM [4]: 58%
- expression of cheW [5]: down-regulated
- expression of csrA [5]: down-regulated
- expression of iucD [5]: down-regulated
- expression of luxS [5]: did not
- expression of pfs [5]: up-regulated

Structure (SMILES): COCCN1CCC(CN(Cc2ccncc2)Cc2ccccc2Cl)CC1 [C1, (2-chlorobenzyl){[1-(2-methoxyethyl)-4-piperidinyl]methyl}(4-pyridinylmethyl)amine]
- inhibition at 100 µM [1]: 20%
- inhibition at 100 µM [2]: 37%
- inhibition at 100 µM [3]: 48%
- inhibition at 100 µM [4]: 64%
- increase in larval survival [6]: 23%
- larval death at 72 h post treatment (in words) [6]: no larval death
- expression of hha [5]: down-regulated
- expression of iss [5]: down-regulated
- expression of murD [5]: down-regulated
- expression of thiH [5]: down-regulated
- expression of ugpC [5]: down-regulated

Structure (SMILES): Cc1ccc(CN2CCN(CCCc3ccccc3)CC2)cc1 [C5, 1-(4-methylbenzyl)-4-(3-phenylpropyl)piperazine]
- inhibition at 100 µM [1]: 18%
- inhibition at 100 µM [2]: 61%
- inhibition at 100 µM [3]: 68%
- inhibition at 100 µM [4]: 63%
- larval death at 48 h post treatment (in words) [6]: no larval death
- expression of fliP [5]: down-regulated
- expression of fpr [5]: down-regulated
- expression of hha [5]: down-regulated
- expression of wzb [5]: down-regulated

Structure (SMILES): Fc1ccc(CN2CCCN(Cc3nc(-c4ccc(C(F)(F)F)cc4)no3)CC2)cc1 [C9, 1-(4-fluorobenzyl)-4-({3-[4-(trifluoromethyl)phenyl]-1,2,4-oxadiazol-5-yl}methyl)-1,4-diazepane]
- inhibition at 100 µM [1]: 20%
- inhibition at 100 µM [2]: 14%
- inhibition at 100 µM [3]: 36%
- inhibition at 100 µM [4]: 44%
- expression of bolA [5]: down-regulated
- expression of cheW [5]: down-regulated
- expression of csrA [5]: down-regulated
- expression of iss [5]: up-regulated
- expression of murD [5]: down-regulated
- expression of nlpC [5]: up-regulated
- expression of ugpC [5]: down-regulated

Structure (SMILES): CCc1ccccc1Nc1nc(-c2c(C)nc3ccccn23)cs1 [C8, N-(2-ethylphenyl)-4-(2-methylimidazo[1,2-a]pyridin-3-yl)-1,3-thiazol-2-amine]
- inhibition at 100 µM [1]: 18%
- inhibition at 100 µM [2]: 54%
- inhibition at 100 µM [3]: 57%
- inhibition at 100 µM [4]: 44%
- larval death at 48 h post treatment (in words) [6]: no larval death
- clearance of APEC in surviving larvae [6]: 100%
- reduction of bacterial load in surviving larvae [6]: up to 5 logs
- expression of fliP [5]: down-regulated
- expression of ugpC [5]: down-regulated
